Results on three compounds are retold here after patent US7326562B2, “Biological indicator system to detect effectiveness of sterilization” (priority 1999, dated 2008).

For assay [1], the system named is B. subtilis spores. The assay can be described thus: Ethylene oxide sterilization of biological indicator; viability by MALS, AODC and TSA plating. Format: cell-based, Bacillus subtilis. The method, then: The ethylene oxide sterilizer used herein was operated at the Department of Veterans Affairs, Processing & Distribution Section, VAHMCS Baltimore Division (Baltimore, Md.). The sterilizing cycle was fixed to include a 2.5 hour exposure to ethylene oxide followed by a de-gassing cycle of 14.5 hours. A non-biological indicator was used to also monitor the sterilization. A surgicot 2 (Surgicot, Research Triangle Park, N.C.) laminated EO Gas Indicator (Propper Manufacturing Co., Long Island, N.Y.) which registers a change in color after correct processing has been accomplished was used for this purpose.
After completion of the EO sterilization cycle, the BI culture was diluted and the spores were suspended in 5% BHI, as described above. […] Following heat-shock, the sample was incubated at 37° C. for 24 hours to ensure that viable cells could be detected if present. […] Direct plating on TSA was also performed to further determine the presence of viable cells.

For assay [2], the system named is B. subtilis (Difco) spores. Briefly: MALS (DAWN-F) measurement of spores directly after ozone treatment. Type of assay: cell-based, Bacillus subtilis. The conditions noted are these: 0.3 ppm ozone; for MALS Intensity: no incubation. The text has this: The MALS instrument used was the DAWN Model F (Wyatt Technology Corp., Santa Barbara, Calif.), which is a flow-through instrument permitting the liquid from a sample to pass through a flow cell while continuously making measurements on the particles as they pass through the cell. Otherwise, the instrument is virtually identical to the DAWN Model B previously described elsewhere herein.
(§1) Ozone model CD-1B (Aqua-Flo, Inc., Baltimore, Md.), equipped with voltage regulator and oxygen flow controls was used to generate an ozone doses of 0.3 to 0.35 ppm in water. Ozone was generated from oxygen, supplied from an oxygen tank with O2 purity of more than about 99.9%. The generator was fitted with a voltage regulator and an oxygen flow regulator which enabled the precise setting of oxygen flow and voltage parameters such that the desired concentration of O3 could be maintained continuously. An oxygen flow rate of 8 ft^3/hr, at 5 psi, and approximately 70 to 80 amps was used to generate the concentrations specified. Excess (head) ozone was passed through a platinum catalyst that converted it back to oxygen where it was released into a vented chemical safety hood.
(§2) By the use of toggle switches, the ozone was directed through glass spargers into either of two specifically designated 2-liter Erlenmeyer flasks containing one liter of distilled water. Either a solution of a test chemical or a suspension of microorganisms, or both, was introduced into the flasks via tubes at the top, which passed into the flasks through rubber stoppers that sealed off the system. Samples could be withdrawn at the bottom of the flasks by opening a stopcock. The ozone concentrations were measured using chemical oxidation of indigo dye using an Ozone Pocket Colorimeter™ per manufacturer's instructions (HACH, Inc., Loveland, Colo.). Bacillus spores, at a concentration of 2×10^6 spores/milliliter were exposed to ozone for treatment times of 0, 5, 10, 15, 20, and 30 minutes, after which times they were measured by MALS, AODC, and CFU, respectively.
(§3) Ozone treatment of microbes is representative of cold sterilization and disinfection. […] Bacillus subtilis spores, at an concentration of 2×10^6 spores/milliliter were exposed to ozone at treatment times of 0, 5, 10, 15, 20, and 30 minutes, at which times they were measured by MALS, AODC, and CFU, respectively. All measurements were made on spores immediately and without the need for incubation. […] These measurements could be correlated directly with the cumulative concentration of ozone with increasing time of exposure. […] For a kill of […] (reduction from 2.1×10^6 to 1.8×10^3 spores/ml) the CT is 0.3 ppm×15 min=4.5. For a kill of 99.995% (reduction from 2.1×10^6 to 10 spores/mL), it is 0.3 ppm×30 min=9.
(§4) Table 2 gives a direct comparison of MALS, AODC, and CFU data for ozone treatment of B. subtilis spores over at 5-minute intervals over a 30-min period. All MALS and AODC measurements were made on spores immediately after treatment, and in the absence of incubation. Spores were plated immediately onto Trypticase Soy Agar after treatment to verify the number of surviving spores (CFU).
(§5) Ozone treatment of microbes is representative of cold sterilization and disinfection.

In assay [3] the test system is B. subtilis (Difco) spores. The assay can be described thus: Acridine orange direct counts (AODC) of spores directly after ozone treatment. Particulars: 0.3 ppm ozone. Format: cell-based, Bacillus subtilis. The method, then:
One ml samples of the culture to be counted were placed into small conical vials and the cell culture was fixed by adding 30 μl of a 36.5-38.0% formalin solution. After fixing the culture with formalin for at least about 30 minutes, the sample was either refrigerated or the AO staining procedure was carried to completion. To stain, 100 μl of a 0.1% acridine orange solution were added to the 1.0 ml spore sample and the dye was allowed to react with the spores for approximately five to eight minutes. Polycarbonate membranes (Poretics®, Osmonics, Livermore Calif.) 25 mm in diameter, 0.2 μm porosity, and black in color were soaked in sterile, distilled water for about 5 to 10 minutes. The membranes were then placed on a millipore filter apparatus. One ml aliquots from control or treated samples which had been stained with AO were placed onto the filters and vacuum was applied. The samples were filtered until the fluid was removed. Then, the filter apparatus container from which the fluid had been removed was rinsed with distilled water to ensure that all cells or spores were impinged upon the filter surface. The filter was laid upon a clean microscope slide, a drop of mineral oil applied to the surface of the membrane, and a clean coverslip was laid onto the membrane.
The AODC slide was examined under a microscope using ultraviolet optics (Olympus VANOX-T equipped for light, phase-contrast, and UV-fluorescence microscopy) which microscope was also fitted with photographic and TV Monitoring equipment. A scaled grid in the eyepiece of the microscope permitted the direct counting of the bacterial spores, bacilli, or other bodies that are stained by the dye and which fluoresce under the UV optics. To determine the number of cells/spores in a sample, the number counted in the entire grid was multiplied by 3.3×10^4 and by any dilution factor of the sample.
as §2, §4, §5

Assay [4] has as its target B. subtilis (Difco) spores. The assay can be described thus: Viable plate counts (CFU) on trypticase soy agar after ozone treatment. Format: cell-based, Bacillus subtilis. Particulars: for kill of the spore population / viable spores after treatment / CFU % of AODC / CFU % of Control / CFU/ml: 0.3 ppm ozone; for viable spores after treatment: reduction from 2.1×10^6; for CFU/ml: CFU after 24 hours incubation. The method, then: Dried spores from the sample vials or glass slides were eluted into sterile distilled water, plated directly, serially diluted (up to 10^−6), and plated onto TSA. After 18 to 24 hours of incubation at 37° C. for B. subtilis and 55° C. for B. stearothermophilus), the viable colony forming units (CFU) were counted. Plates that had no colonies were incubated for several more days (up to 7 days) to ensure that there were no damaged, but viable spores. From each of the same samples, Trypticase Soy broth was inoculated and incubated for up to seven days to ensure that there were no surviving bacteria in the negative assays.
The spores were eluted from the biological indicator slides or scintillation vials into 20 ml of sterile distilled water and 0.1 ml of the sample was spread onto TSA plates.
as §2, §3, §4, §5

Assay [5] deals with B. stearothermophilus spores. The assay can be described thus: Ozone treatment of B. stearothermophilus spores, MALS directly after treatment. Type of assay: cell-based, Bacillus stearothermophilus. The conditions noted are these: about 0.3 ppm ozone, 5 to 20 min, 0 hours post-treatment.
Text: as §1
By the use of toggle switches, the ozone was directed through glass spargers into either of two specifically designated 2-liter Erlenmeyer flasks containing one liter of distilled water. […] The ozone concentrations were measured using chemical oxidation of indigo dye using an Ozone Pocket Colorimeter™ per manufacturer's instructions (HACH, Inc., Loveland, Colo.). Bacillus spores, at a concentration of 2×10^6 spores/milliliter were exposed to ozone for treatment times of 0, 5, 10, 15, 20, and 30 minutes, after which times they were measured by MALS, AODC, and CFU, respectively. […]

The test system of another assay is B. subtilis. The conditions noted are these: 8% humidified ozone sterilization; cited from earlier work.
The next assay deals with B. stearothermophilus. The conditions noted are these: 8% humidified ozone sterilization; cited from earlier work.
Assay [6] concerns B. subtilis spores.
Procedure: The sterilization cycle requires about 70 minutes to complete. […] The STERRAD* employed a non-biological indicator comprising a Chemical Indicator strip supplied by the manufacturer which changed from red to yellow (or lighter) as compared to the color bar on the strip when exposed to H2O2 during the processing cycle. Also, a BI (B. subtilis spore strips) was incubated in a nutrient broth for 7 days to determine successful sterilization.
For all H2O2 sterilized cultures, the BI challenge was one ml of B. subtilis spores at a concentration of 1.7×10^8/ml which were air-dried onto a glass slide as described previously elsewhere herein. After completion of the STERRAD Cycle of approximately 70 minutes, the BI culture was diluted and the cells were suspended in 5% BHI, as described above. The culture was diluted to the same concentration as the control BI and the sample was heat-shocked at 70° C. for 10 minutes and incubated at 37° C. for 24 hours to detect any viable cells present. MALS measurements were obtained at 0 minutes, 30 minutes, 1 hour, 2 hours, 3 hours, 4 hours, and 4.75 hours, and parallel samples were obtained for analysis by AODC direct counting. Direct plating on TSA was also performed to determine the presence of viable cells. […]

Regarding `C1CO1` [EO, ethylene oxide], the “bacterial growth of BI immersed in water” value in the assay on B. subtilis spores [1] (EO samples immersed within 10, 50, and 100 ml of water) was “all positive for bacterial growth”. Moreover, the “viable colonies on TSA plates” value in the assay on B. subtilis spores [1] (spores dried on glass slide, 2.5 hour EO exposure, heat-shocked, incubated in 5% BHI) is “no viable colonies”. Also, the “AODC direct counts during incubation” value with B. subtilis spores [1] (spores dried on glass slide, EO cycle, 0 to 4 hours incubation) is “no increase in direct counts”.

As for `O=[O+][O-]` [ozone], the “MALS % of control” value was 65.33% in assay [2] (5 min treatment); 51.89% in assay [2] (10 min treatment); 42.67% in assay [2] (15 min treatment); 34.94% in assay [2] (20 min treatment); 27.96% in assay [2] (30 min treatment). The “MALS Intensity” value is on record as 1591.92 in assay [2] (5 min treatment, log weighted average of intensities at all detectors); 1264.26 in assay [2] (10 min treatment); 1039.64 in assay [2] (15 min treatment); 851.5 in assay [2] (20 min treatment); 681.2 in assay [2] (30 min treatment). The “AODC % of control” value was 68.3% in assay [3] (5 min treatment); 49.5% in assay [3] (10 min treatment); 55.1% in assay [3] (15 min treatment); 20.8% in assay [3] (20 min treatment); 21.5% in assay [3] (30 min treatment). Besides, the “AODC Spores per ml” value is listed as 1.6 × 10^6 spores per ml in assay [3] (5 min treatment); 1.16 × 10^6 spores per ml in assay [3] (10 min treatment); 1.29 × 10^6 spores per ml in assay [3] (15 min treatment); 4.87 × 10^5 spores per ml in assay [3] (20 min treatment); 5.03 × 10^5 spores per ml in assay [3] (30 min treatment). In addition, the “kill of the spore population” value in assay [4] (5 min) was found to be 41.4%; in assay [4] (15 min), 91%; in assay [4] (30 min), 99.995%. In addition, the “viable spores after treatment” value in assay [4] (5 min) is 1.23×10^6 spores/ml; in assay [4] (15 min), 1.8×10^3 spores/ml; in assay [4] (30 min) it was 10 spores/mL. Moreover, the “CFU % of AODC” value turned out to be 76.9% in assay [4] (5 min treatment); 14.5% in assay [4] (10 min treatment); 0.14% in assay [4] (15 min treatment); 0.04% in assay [4] (20 min treatment); 0.04% in assay [4] (30 min treatment). The “CFU % of Control” value in assay [4] (5 min treatment) is listed as 58.5%; in assay [4] (10 min treatment), 8.0%; in assay [4] (15 min treatment) it was 0.09%; in assay [4] (20 min treatment) it was 0.009%; in assay [4] (30 min treatment), 0.00005%. Further, the CFU/ml is on record as 1.23 × 10^6 CFU/ml in assay [4] (5 min treatment); 1.68 × 10^5 CFU/ml in assay [4] (10 min treatment); 1.80 × 10^3 CFU/ml in assay [4] (15 min treatment); 1.82 × 10^2 CFU/ml in assay [4] (20 min treatment); 10 CFU/ml in assay [4] (30 min treatment). Besides, the “CT (concentration x time) value” is reported as 1.5 in assay [4] (0.3 ppm×5 min), 4.5 in assay [4] (0.3 ppm×15 min) and 9 in assay [4] (0.3 ppm×30 min). The “change in spore concentrations (MALS)” value in assay [5] is “decreases in spore concentrations with increasing exposure to ozone”. Besides, the “D value (time required to reduce the number of spores by 1 log)” value is 5 minutes with B. subtilis and 4.3 minutes with B. stearothermophilus.

As to `OO` [H2O2, hydrogen peroxide], the “MALS N/No value” with B. subtilis spores [6] (H2O2-sterilized BI after 3 hours of incubation vs control at 0 minutes) stood at 1.0. In addition, the “growth on TSA plates” value in the assay on B. subtilis spores [6] (STERRAD* cycle about 70 minutes, 10 plates on each of triplicate samples) is given as “no growth on any plate”.
